Assay results from patent US5213797A, “A80407 antibiotics” (Eli Lilly and Company, priority 1990, dated 1993).
Bridge positions count the residues as written; N and C are the ends. Square brackets hold non-standard residues; d marks the D form. Peptide text beside a SMILES is read from it. * marks the point of attachment. Ileψ(thiazoline)Cys = CC[C@H](C)[C@H](N)C1=N[C@H](C(=O)*)CS1; dOrn = NCCC[C@@H](N)C(=O)O

Tests used:
[1] = tested on: Kibdelosporangium philippinensis (cultures A80407 and A80407.4); experiment: Resistance to antibiotics of the producing cultures, antibiotic sensitivity discs on seeded ISP No. 2 agar; conditions: 10 units; both cultures
[2] = tested on: Kibdelosporangium philippinensis (cultures A80407 and A80407.4); experiment: Lysozyme resistance of the producing cultures; format: cell-based; conditions: both cultures
Excerpt: Methods recommended by Gordon et.al. [R. E. Gordon, D. A. Barnett, J. E. Handerhan, and C. H. Pang, "Nocardia coeliaca, Nocardia autotrophica, and the Nocardin Strain," Int. J. Syst. Bacteriol. 24, (1), 54-63 (1974)] were followed for the majority of physiological tests.

Row | Molecule | Resistance to antibiotics [1] | Resistance to lysozyme [2]
1 | CC[C@H](C)[C@H](N)C1=N[C@H](C(=O)N[C@@H](CC(C)C)C(=O)N[C@H](CCC(=O)O)C(=O)N[C@H](C(=O)N[C@H]2CCCCNC(=O)[C@H](CC(N)=O)NC(=O)[C@@H](CC(=O)O)NC(=O)[C@H](Cc3cnc[nH]3)NC(=O)[C@@H](Cc3ccccc3)NC(=O)[C@H]([C@@H](C)CC)NC(=O)[C@@H](CCCN)NC2=O)[C@@H](C)CC)CS1 [bacitracin] ({Ileψ(thiazoline)Cys}-L[dE]IK[dOrn]I[dF]H[dD]N; lactam 4-C) | sensitive | –
2 | lysozyme | – | Neither culture was resistant
